Reference: ChEMBL document CHEMBL1141299, “Hologram QSAR model for the prediction of human oral bioavailability” (Bioorg Med Chem, 2007)

Assay: Oral bioavailability in human
Settings: in vivo

Row | SMILES | bioavailability
1 | C[C@H](NC(C)(C)C)C(=O)c1cccc(Cl)c1 | 70%
2 | CN1CCN(C(=O)O[C@@H]2c3nccnc3C(=O)N2c2ccc(Cl)cn2)CC1 | 80%
3 | C[C@@H](N)Cc1cccc(C(F)(F)F)c1 | 85%
4 | N[C@H](Cc1ccc(N(CCCl)CCCl)cc1)C(=O)O | 71%
5 | C[C@@H](NC(C)(C)C)C(=O)c1cccc(Cl)c1 | 70%
6 | COc1ccc([C@H](CN(C)C)C2(O)CCCCC2)cc1 | 45%
7 | O=C(O)[C@H]1N=C(c2ccccc2)c2cc(Cl)ccc2NC1=O | 91%
8 | CCN(CC)C(=O)[C@]1(c2ccccc2)C[C@@H]1CN | 84%
9 | O=C(O)[C@@H]1N=C(c2ccccc2)c2cc(Cl)ccc2NC1=O | 91%
10 | NS(=O)(=O)c1cc([C@@]2(O)NC(=O)c3ccccc32)ccc1Cl | 64%
11 | N[C@@H](Cc1ccc(N(CCCl)CCCl)cc1)C(=O)O | 71%
12 | CC(C)=CCN1CC[C@]2(C)c3cc(O)ccc3C[C@H]1[C@H]2C [(+)-PENTAZOCINE] | 18%
13 | NS(=O)(=O)c1cc([C@]2(O)NC(=O)c3ccccc32)ccc1Cl [(R)-CHLORTHALIDONE] | 64%
14 | CN(C)CCC[C@]1(c2ccc(F)cc2)OCc2cc(C#N)ccc21 [(R)-CITALOPRAM] | 80%
15 | COc1c(N2CCN[C@H](C)C2)c(F)cc2c(=O)c(C(=O)O)cn(C3CC3)c12 [(R)-GATIFLOXACIN] | 96%
16 | O=C1Nc2ccc(Cl)cc2C(c2ccccc2Cl)=N[C@@H]1O [(R)-LORAZEPAM] | 93%
17 | CN1C(=O)[C@@H](O)N=C(c2ccccc2Cl)c2cc(Cl)ccc21 [(R)-LORMETAZEPAM] | 75%
18 | CC[C@@]1(c2ccccc2)C(=O)NC(=O)N(C)C1=O [(R)-METHYLPHENOBARBITAL] | 73%
19 | CC(C)N(CC[C@](C(N)=O)(c1ccccc1)c1ccccn1)C(C)C [(S)-DISOPYRAMIDE] | 83%
20 | COc1c(N2CCN[C@@H](C)C2)c(F)cc2c(=O)c(C(=O)O)cn(C3CC3)c12 [(S)-GATIFLOXACIN] | 96%
21 | O=C1Nc2ccc(Cl)cc2C(c2ccccc2Cl)=N[C@H]1O [(S)-LORAZEPAM] | 93%
22 | CN1C(=O)[C@H](O)N=C(c2ccccc2Cl)c2cc(Cl)ccc21 [(S)-LORMETAZEPAM] | 75%
23 | CC[C@]1(c2ccccc2)C(=O)NC(=O)N(C)C1=O [(S)-METHYLPHENOBARBITAL] | 73%
24 | COc1ccc([C@@H](CN(C)C)C2(O)CCCCC2)cc1 [(S)-VENLAFAXINE] | 45%

Same assay, conditions: in vivo, F

Row | SMILES | bioavailability
25 | CCOc1nc2cccc(C(=O)O)c2n1Cc1ccc(-c2ccccc2-c2nnn[nH]2)cc1 | 15%
26 | COc1ccc(CCN(C)CCCC2(c3ccc(OC)c(OC)c3)S(=O)(=O)CCCS2(=O)=O)cc1OC | 22%
27 | CNS(=O)(=O)CCc1ccc2[nH]cc(C3CCN(C)CC3)c2c1 | 67.5%
28 | CN1CCC[C@@H]1Cc1c[nH]c2ccc(CCS(=O)(=O)c3ccccc3)cc12 | 62.5%
29 | CCCc1nc(C)c2c(=O)[nH]c(-c3cc(S(=O)(=O)N4CCN(CC)CC4)ccc3OCC)nn12 | 15%
30 | CCCc1nn(C)c2c(=O)[nH]c(-c3cc(S(=O)(=O)N4CCN(C)CC4)ccc3OCC)nc12 | 40%
31 | COc1cc(N[C@@H](C)CCCN)c2ncccc2c1 | 96%
32 | CCN(CC)CCC[C@H](C)Nc1ccnc2cc(Cl)ccc12 | 80%
33 | CC(C)COC[C@H](CN(Cc1ccccc1)c1ccccc1)N1CCCC1 | 60%
34 | O=C(NC[C@@H]1CCCCN1)c1cc(OCC(F)(F)F)ccc1OCC(F)(F)F | 95%
35 | C[C@H](N/C(=N/c1ccncc1)NC#N)C(C)(C)C | 57%
36 | COc1cc(N[C@H](C)CCCN)c2ncccc2c1 | 96%
37 | CC(C)NC[C@H](O)c1ccc(NS(C)(=O)=O)cc1 | 60%
38 | CN1CCN2c3ccccc3Cc3ccccc3[C@H]2C1 | 20%
39 | CC(C)NC[C@@H](O)COc1ccc(OCCOCC2CC2)cc1 | 100%
40 | C[C@@H](CN1CCN(CCOCCO)CC1)CN1c2ccccc2Sc2ccccc21 | 10%
41 | COc1ccc(CCN(C)CCC[C@@](C#N)(c2ccc(OC)c(OC)c2)C(C)C)cc1OC | 13.5%
42 | C[C@@H](N/C(=N/c1ccncc1)NC#N)C(C)(C)C | 57%
43 | C[C@H](CN1CCN(CCOCCO)CC1)CN1c2ccccc2Sc2ccccc21 | 10%
44 | CO/N=C1\CN(c2nc3c(cc2F)c(=O)c(C(=O)O)cn3C2CC2)C[C@@H]1CN | 71%
45 | CC(C)NC[C@H](O)COc1ccc(OCCOCC2CC2)cc1 | 100%
46 | CC1=CC[C@H](C(C)(C)O)C[C@H]1O | 72%
47 | CC(C)COC[C@@H](CN(Cc1ccccc1)c1ccccc1)N1CCCC1 | 60%

Row | SMILES | bioavailability
48 | CN1Cc2c(N)cccc2[C@@H](c2ccccc2)C1 | 27%
49 | CN1Cc2c(N)cccc2[C@H](c2ccccc2)C1 | 27%
50 | Nc1nc(N)c2nc(-c3ccccc3)c(N)nc2n1 | 51%
51 | CCOC(=O)C(CCc1ccccc1)N[C@@H](C)C(=O)N1CCC[C@H]1C(=O)O (single isomer, unassigned) | 41%
52 | Nc1nc(NC2CC2)c2ncn([C@H]3C=C[C@@H](CO)C3)c2n1 (single isomer, unassigned) [ABACAVIR] | 86%
53 | C[C@@H](OC1OCCN(Cc2n[nH]c(=O)[nH]2)C1c1ccc(F)cc1)c1cc(C(F)(F)F)cc(C(F)(F)F)c1 (single isomer, unassigned) [APREPITANT] | 62.5%
54 | C=C1/C(=C\C=C2/CCC[C@]3(C)[C@@H](C(C)CCCC(C)(C)O)CC[C@@H]23)C[C@@H](O)C[C@@H]1O (single isomer, unassigned) [CALCITRIOL] | 61%
55 | CCCNC1CCc2nc(N)sc2C1 (single isomer, unassigned) [PRAMIPEXOLE] | 90%
56 | Cc1ccsc1C(=CCCN1CCCC(C(=O)O)C1)c1sccc1C (single isomer, unassigned) [TIAGABINE] | 90%
57 | CCc1cccc2cc([C@H](O)CNC(C)(C)C)oc12 [(R)-BUFURALOL] | 46%
58 | CCN(CC)CCC[C@@H](C)Nc1ccnc2cc(Cl)ccc12 [(R)-CHLOROQUINE] | 80%
59 | CCN1C[C@H](CCN2CCOCC2)C(c2ccccc2)(c2ccccc2)C1=O [(R)-DOXAPRAM] | 61%
60 | CCOC(=O)C1=C(C)NC(C)=C(C(=O)OC)[C@H]1c1cccc(Cl)c1Cl [(R)-FELODIPINE] | 15%
61 | CC(C)Cc1ccc([C@@H](C)C(=O)O)cc1 [(R)-IBUPROPHEN] | 80%
62 | COC(=O)C1=C(C)NC(C)=C(C(=O)OC(C)C)[C@@H]1c1cccc2nonc12 [(R)-ISRADIPINE] | 19.5%
63 | Cc1cc2c(OC[C@H](O)CNC(C)C)cccc2[nH]1 [(R)-MEPINDOLOL] | 82%
64 | Cc1cccc(C)c1OC[C@@H](C)N [(R)-MEXILETINE] | 87%
65 | COc1ccc(OC)c([C@@H](O)CNC(=O)CN)c1 [(R)-MIDODRINE] | 93%
66 | CCOC(=O)C1=C(C)NC(C)=C(C(=O)OC)[C@H]1c1cccc([N+](=O)[O-])c1 [(R)-NITRENDIPINE] | 16%
67 | Cc1nccn1C[C@H]1CCc2c(c3ccccc3n2C)C1=O [(R)-ONDANSETRON] | 62%
68 | O[C@@](CCN1CCCC1)(c1ccccc1)C1CCCCC1 [(R)-PROCYCLIDINE] | 75%
69 | CCC(=O)c1ccc2c(c1)N(C[C@@H](C)N(C)C)c1ccccc1S2 [(R)-PROPIOMAZINE] | 33%
70 | C[C@@H](O)Cn1cnc2c1c(=O)n(C)c(=O)n2C [(R)-PROXYPHYLLINE] | 100%

Row | SMILES | bioavailability
71 | C[C@@H](C(=O)O)c1ccc(C(=O)c2cccs2)cc1 [(R)-SUPROFEN] | 92%
72 | Cc1cccc(C)c1NC(=O)[C@@H](C)N [(R)-TOCAINIDE] | 89%
73 | Cc1cccc(OC[C@H](O)CNC(C)C)c1 [(R)-TOLIPROLOL] | 90%
74 | CC(C)[C@H](N)C(=O)OC[C@@H](CO)OCn1cnc2c(=O)nc(N)[nH]c21 [(R)-VALGANCICLOVIR] | 59.4%
75 | CC(C)(C)NC[C@@H](O)c1ccc(O)c(CO)c1 [(S)-ALBUTEROL] | 71%
76 | CCc1cccc2cc([C@@H](O)CNC(C)(C)C)oc12 [(S)-BUFURALOL] | 46%
77 | CCN1C[C@@H](CCN2CCOCC2)C(c2ccccc2)(c2ccccc2)C1=O [(S)-DOXAPRAM] | 61%
78 | CCOC(=O)C1=C(C)NC(C)=C(C(=O)OC)[C@@H]1c1cccc(Cl)c1Cl [(S)-FELODIPINE] | 15%
79 | COC(=O)C1=C(C)NC(C)=C(C(=O)OC(C)C)[C@H]1c1cccc2nonc12 [(S)-ISRADIPINE] | 19.5%
80 | Cc1cc2c(OC[C@@H](O)CNC(C)C)cccc2[nH]1 [(S)-MEPINDOLOL] | 82%
81 | Cc1cccc(C)c1OC[C@H](C)N [(S)-MEXILETINE] | 87%
82 | COc1ccc(OC)c([C@H](O)CNC(=O)CN)c1 [(S)-MIDODRINE] | 93%
83 | CC(C)[C@H]1CC[C@H](C(=O)N[C@@H](Cc2ccccc2)C(=O)O)CC1 [(S)-NATEGLINIDE] | 73%
84 | CCOC(=O)C1=C(C)NC(C)=C(C(=O)OC)[C@@H]1c1cccc([N+](=O)[O-])c1 [(S)-NITRENDIPINE] | 16%
85 | Cc1nccn1C[C@@H]1CCc2c(c3ccccc3n2C)C1=O [(S)-ONDANSETRON] | 62%
86 | O[C@](CCN1CCCC1)(c1ccccc1)C1CCCCC1 [(S)-PROCYCLIDINE] | 75%
87 | C[C@@H](CN1c2ccccc2Sc2ccccc21)N(C)C [(S)-PROMETHAZINE] | 25%
88 | C[C@H](O)Cn1cnc2c1c(=O)n(C)c(=O)n2C [(S)-PROXYPHYLLINE] | 100%
89 | C[C@H](C(=O)O)c1ccc(C(=O)c2cccs2)cc1 [(S)-SUPROFEN] | 92%
90 | Cc1cccc(OC[C@@H](O)CNC(C)C)c1 [(S)-TOLIPROLOL] | 90%
91 | CC(C)[C@H](N)C(=O)OC[C@H](CO)OCn1cnc2c(=O)nc(N)[nH]c21 [(S)-VALGANCICLOVIR] | 59.4%
92 | CC(=O)Nc1ccc(O)cc1 [ACETAMINOPHEN] | 88%
93 | CN(C)CCc1c[nH]c2ccc(CS(=O)(=O)N3CCCC3)cc12 [ALMOTRIPTAN] | 70%
